Reference: patent US10398706B2, “Heteroaryldiazepine derivatives as RSV inhibitors” (Enanta Pharmaceuticals, Inc., priority 2017, dated 2019)

tested on: Human RSV-A (“Long” strain); assay: RSV-A in vitro cytoprotection assay in HEp-2 cells (ATPlite readout); format: cell-based, Human respiratory syncytial virus; details: HEp-2 cells, 4-day incubation, ATPlite cell viability; read-out: Human RSV-A (“Long” strain) EC50
Description: RSV is a single stranded negative sense RNA virus that causes respiratory tract infections which can be dangerous to infants, the elderly, and immunosuppressed individuals. Currently there is no vaccine, and therapeutic options are both costly and of limited effectiveness. These approved treatments are Ribavirin, and Palivizumab/Synagis (a monoclonal antibody). RSV has two genotypes, A and B, which differ primarily in the structure of the virus' surface “G” attachment protein. Our current primary screen focusses on RSV-A and uses an in vitro cytoprotection assay where compounds are added in 2-fold dilutions to cells which are then subjected to fully replicative viral particles. Cell viability is measured several days later along with separate measurements of compound cytotoxicity. This report focuses on the results of our most recent screening of compounds.
HEp-2 cells, (originally derived from tumors grown in irradiated-cortisonised weanling rats that had been injected with epidermoid carcinoma tissue from a person's larynx, but later found to be indistinguishable from HeLa cells by PCR DNA analysis), were used for the culturing of genotype A, “Long” strain RSV. Flasks were inoculated with RSV and viral stocks were collected once cytopathic effect (CPE) was greater than 90%. Viral stocks in 25% sucrose media were snap frozen using liquid nitrogen to increase viral stability. Viral stock titers were quantified by tissue culture infectious dose 50% (TCID50) using 8,000 cells per well and 3-fold viral dilutions across a 96-well plate, cultured for 4 days.
Following extensive parameter testing, the final assay is run as follows: HEp-2 cells are seeded into the inner 60 wells of a 96-well plate at 8,000 cells per well in a volume of 50 μL using Growth Media (DMEM without phenol red, 1% L-Glut, 1% Penn/Strep, 1% nonessential amino acids, 10% FBS). 2-fold serial dilutions of control and test compounds are added to the wells in duplicate in a total volume of 25 μL. Viral stock is then added to the wells in a volume of 25 μL, bringing the total volume of each well to 100 μL. Each 96-well plate has a control column of 6 wells with cells and virus but no compound (negative control, max CPE), a column with cells but no compound or virus (positive control, minimum CPE), and a column with no cells or virus or compound (background plate/reagent control). The control wells with cells but no virus are given an additional 25 uL of growth media containing an equal quantity of sucrose as those wells receiving the viral stock in order to keep consistent in media and volume conditions. The outer wells of the plate are filled with 125 μL of growth media to act as a thermal and evaporative moat around the test wells. Following a 4-day incubation period, the plates are read using ATPlite (50 uL added per well), which quantifies the amount of ATP (a measure of cell health) present in each well. Assay plates are read using the Envision luminometer. […] EC50 ranges are as follows: A<0.4 μM; B 0.4-0.8 μM; C>0.8 μM.

SMILES | EC50 [nM]
Cc1sc2c(c1C)C(c1ccccc1)=N[C@H](Nc1nnc(-c3ncc(C(F)(F)F)cc3N3CCOCC3)o1)C(=O)N2 [Example 8] | 400 to 800
Cc1cc2c(s1)NC(=O)[C@@H](Nc1nnc(-c3ncc(C(F)(F)F)cc3N3CCOCC3)o1)N=C2c1ccccc1 [Example 6] | < 400

same assay, conditions: human respiratory syncytial virus, HEp-2, 96 h, read-out: Human RSV-A (“Long” strain) EC50

SMILES | EC50 [nM]
O=C1Nc2ccsc2C(c2ccccc2)=NC1Nc1nnc(-c2ncc(C(F)(F)F)cc2N2CCOCC2)o1 (stereo not shown) [Example 4] | 400 to 800
O=C1Nc2cnccc2C(c2ccccc2)=NC1Nc1nnc(-c2ccc(F)cc2)o1 (stereo not shown) [Example 3] | > 800
O=C1Nc2ncccc2C(c2ccccc2)=NC1Nc1nnc(-c2ccc(F)cc2)o1 (stereo not shown) [Example 2] | > 800
O=C1Nc2cccnc2C(c2ccccc2)=NC1Nc1nnc(-c2ccccc2)o1 (stereo not shown) [Example 1] | > 800
O=C1Nc2sccc2C(c2ccccc2)=NC1Nc1nnc(-c2ncc(C(F)(F)F)cc2N2CCOCC2)o1 (stereo not shown) [Example 5] | 400 to 800
